# What was measured:
# [1] = system: subcutaneous 22Rv1 human prostate cancer xenograft; experiment: Efficacy study in the 22Rv1 xenograft prostate cancer model; format: in vivo, male BALB/c nude mice; conditions: castrated mice, 21 days; doses per Table 1: Cmpd Str (I) 1.25 mg/kg p.o. BID or 10 mg/kg p.o. Q7D; enzalutamide 30 mg/kg p.o. QD; docetaxel 10 mg/kg i.p. Q7D; ABT199 100 mg/kg p.o. QD
# Method: The objective of this study was to evaluate the in vivo therapeutic efficacy of the compound of structure (I) or a pharmaceutically acceptable salt or zwitterionic form thereof in the treatment of a subcutaneous 22Rv1 human prostate cancer xenograft model. For the 22Rv1 model, efficacy of the compound of structure (I) was evaluated in male BALB/c nude mice. Cobalt-60 irradiation of all mice was performed 2 days before the tumor inoculation at 2 Gy (1 Gy=100 rads). Each mouse was inoculated at the right flank with 1×10^7 tumor cells in 0.1 ml of PBS mixed with matrigel (1:1). The date of tumor cell inoculation was denoted as day 0.
# Castration was performed when mean tumor volume reached approximately 200 mm^3. Mice were anesthetized with ketamine/xylazine; surgical castration was performed via a midline scrotal incision allowing bilateral access to the hemiscrotal contents; after exposing each testicle, a 6-0 Vicryl suture was used to ligate the spermatic cord and then remove the testicle; the scrota and skin was then closed with 6-0 Vicryl suture, separately. Treatments started when the mean tumor volume re-grew to approximately 100 mm^3.
# After tumors reached the appropriate size, approximately 100-200 mm^3, mice were randomized into treatment groups 1-11, which are shown in Table 1. Each treatment was administered starting on day 15, at a dosing volume of 5 μL/g and continued for 21 days (or 22 days for groups with treatment at Q7D). For groups with treatment at Q7D×3 weeks, dosing was performed on days 1, 8, and 15 post-randomization, and the study was terminated on day 22 post randomization. The combined treatment intervals were each 0 h, and the interval for BID was 8 h. Randomization was performed based on the “Matched distribution” method (StudyDirector™ software, version 3.1.399.19) randomized block design.
# Tumor volumes were measured twice per week after randomization in two dimensions using a caliper, and the volume was expressed in mm^3 using the formula: “V=(L×W×W)/2,” where V is tumor volume, L is tumor length (the longest tumor dimension) and W is tumor width (the longest tumor dimension perpendicular to L). The average tumor volume for each group, as a percentage of the average tumor volume of the control group (group 1), is shown in FIG. 6. […] The percentage shown in FIG. 7 (% T/C) is calculated as mean(T)/mean(C)*100%, with “T” representing tumor volume and “C” representing tumor volume for group 1.
# T and C are the mean tumor volume (or weight) of the treated groups and control group (group 1), respectively, on a given day. The percentages shown in FIG. 10 are calculated as % ΔT/C=(mean(T)−mean(T0))/(mean(C)−mean(C0))*100%, with “0” indicating the initial timepoint.
# PC3 cells = experiment: Cell viability assay in PC3 prostate cancer cells; format: cell-based; conditions: Homo sapiens, PC-3, alvocidib 3.9 nM-1000 nM
# Method: (§1) The compound of structure (I), and pharmaceutically acceptable salts and zwitterionic forms thereof, is converted in vivo to alvocidib (see U.S. Patent Publication No. US 2016/0340376, the full disclosure of which is hereby incorporated by reference in its entirety). Therefore, the in vitro effects of alvocidib were evaluated in multiple prostate cancer cell lines with varied sensitivity to androgen. PC3 is an AR-negative prostate cancer cell line with little to no expression of PSA and low sensitivity to androgens. VCAP is a prostate cancer cell line that is positive for ARv7, and can grow in an androgen-independent manner. LNCAP is an androgen-dependent prostate cancer cell line. 22Rv1 is a prostate cancer cell line that is positive for ARv7, has low sensitivity to androgen, and is derived from a xenograft that was serially propagated in mice after castration-induced regression and relapse of the parental, androgen-dependent CWR22 xenograft. […] Cell viability may be assessed, for example, using CellTiter-Glo according to manufacturer protocol.
# PSA in VCaP cells = experiment: PSA protein level by Western blot in VCaP cells; format: cell-based; conditions: 25 nM or 100 nM, 48 hours, vs vehicle
# Method: (§2) On the day of the treatment, the media was replaced with 10 mL of fresh media. […] Cells were collected by scraping, washed in PBS, and lysed using sonication in RIPA buffer supplemented with protease and phosphatase inhibitors. […] of protein was loaded into a 4-12% gel, and transferred to a nitrocellulose membrane. Blocking, anti-actin, and secondary staining was done in 5% milk. Anti-PSA antibody was diluted in BSA.
# [2] = system: LNCaP cells (caspase 3 cleavage); experiment: Cell death by caspase 3 cleavage Western blot in LNCaP cells; format: cell-based, human; conditions: 100 nM, 48 hours, 10% serum
# Method: LNCaP cells were treated with 100 nM alvocidib for 48 hours in regular 10% serum conditions. Cells were collected by scraping, washed in PBS, and lysed using sonication in RIPA buffer supplemented with protease and phosphatase inhibitors. […] of protein was loaded into a 4-12% gel, and transferred to a PVDF membrane. Blocking and staining was performed in 5% milk. […] Anti-actin was used as a loading control.
# [3] = system: RNA Pol II phosphorylation in 22Rv1 cells; experiment: RNA Pol II phosphorylation by flow cytometry in 22Rv1 cells; format: cell-based, human; conditions: 80 nM or 160 nM, three hours, 10% serum stimulated 1 hour before collection; vs DMSO
# Method: To evaluate the effects of alvocidib on serum-stimulated prostate cancer cells, RNA Polymerase (Pol) II phosphorylation was assessed by flow cytometry. The prostate cancer cells, 22Rv1 cells, were treated with DMSO or alvocidib (80 nM or 160 nM) for three hours, and were serum stimulated (10%) one hour prior to sample collection. Goat anti-rabbit IgG H&L was used as an isotype control.
# 22Rv1 cells = experiment: Cell viability assay in 22Rv1 prostate cancer cells; format: cell-based; conditions: Homo sapiens, alvocidib 0.0026 nM-1000 nM
# Method: as §1
# [4] = PK analysis in PC-3 mouse xenograft model (plasma and tumor, LC-MS/MS); format: in vivo; conditions: 24 hours after oral gavage of compound of structure (I) 7.5 or 15 mg/kg; PC-3 xenograft mice
# Method: PC-3 prostate tumor cells were maintained in vitro as a monolayer culture in Ham's F12K medium supplemented with 10% fetal bovine serum at 37° C. in an atmosphere of 5% CO2 in air. The cells in an exponential growth phase were harvested and counted for tumor inoculation. Each mouse was inoculated subcutaneously at the right flank region with PC-3 prostate tumor cells (5×10^6 cells) in 0.1 ml of PBS for tumor development. When the mean tumor size reached approximately 300 mm^3, the mice were randomized and divided into study groups.
# [5] = Phase I dose-escalation study in patients with advanced solid tumors: plasma PK; format: in vivo, human; conditions: for Tmax: plasma alvocidib, Cohort 5, 6 mg BID oral compound of structure (I) (Formulation No. 401-01)
# Method: Plasma PK parameters of compound of structure (I) and alvocidib were evaluated in Cohorts 1-5 at specific timepoints during the study. Blood was collected from patients in Cohorts 1-5 according to the pharmacokinetic sampling schedule described in Table 9.
# PK parameters were estimated using standard noncompartmental methods. Actual sample collection times were used rather than scheduled collection times. Plasma concentrations below the limit of quantification were treated as 0. Imbedded missing plasma concentrations (e.g., missing values between two observed values) were estimated using linear […]. This is consistent with using the trapezoidal rule to calculate AUC. Other missing plasma concentrations were excluded from calculations to estimate PK parameters.
# LNCaP cells = experiment: Cell viability assay in LNCaP prostate cancer cells; format: cell-based; conditions: Homo sapiens, alvocidib 3.9 nM-1000 nM
# Method: as §1
# VCAP cells = experiment: Cell viability assay in VCAP prostate cancer cells; format: cell-based; conditions: Homo sapiens, alvocidib 3.9 nM-1000 nM
# Method: as §1
# [6] = system: TMPRSS2 expression in 22Rv1 cells; experiment: Quantitative real-time PCR of TMPRSS2 mRNA in serum-stimulated 22Rv1 cells; format: cell-based, human; conditions: 80 nM or 160 nM, 3 or 24 hours, 22Rv1 cells serum stimulated 1 hour before collection
# Method: In another experiment; androgen receptor expression and functionality were assessed using quantitative real-time PCR measurement of the mRNA level of transmembrane protease, serine 2 (TMPRSS2) mRNA levels in prostate cancer cell line 22Rv1, as described in Chen et al., 2012. […] TMPRSS1 is an androgen-responsive gene, which is transcriptionally regulated by androgen receptor. An androgen response may be driven by the addition of exogenous testosterone; or by serum stimulation (which contains androgens), in prostate cancer cell lines.
# The 22Rv1 cells were treated with DMSO or alvocidib (80 nM or 160 nM) for either 3 hours or 24 hours, and serum stimulated one hour prior to sample collection (or the cells were serum starved as a control).
# PSA in LNCaP cells = experiment: PSA protein level by Western blot in LNCaP cells; format: cell-based, human; conditions: 25 nM or 100 nM, 48 hours, vs vehicle
# Method: as §2
# [7] = system: androgen receptor (phospho- and total-AR) in 22Rv1 and LNCaP cells; experiment: Immunoblotting of androgen receptor in serum-stimulated prostate cancer cells; format: cell-based, human; conditions: 80 nM or 160 nM, 24 hours of treatment, serum stimulated 1 hour before collection
# Method: In a first experiment to evaluate the effects of alvocidib on serum stimulated prostate cancer cells, androgen receptor expression was assessed by immunoblotting. […] The prostate cancer cells, 22Rv1 or LNCaP, were treated with DMSO or alvocidib (80 nM or 160 nM), for either 3 hours or 24 hours, and were serum stimulated one hour prior to sample collection (or the cells were serum starved as a control).
# [8] = system: PSA expression in 22Rv1 cells; experiment: PSA expression in serum-stimulated 22Rv1 cells; format: cell-based, human; conditions: 80 nM or 160 nM, 24 hours
# Method: The 22Rv1 cells were treated with DMSO or alvocidib (80 nM or 160 nM) for 24 hours, and serum stimulated either 3 hours or 23 hours following treatment (or the cells were serum starved as a control).
smiles,measurement,setting,value
CC1(C)CCC(CN2CCN(c3ccc(C(=O)NS(=O)(=O)c4ccc(NCC5CCOCC5)c([N+](=O)[O-])c4)c(Oc4cnc5[nH]ccc5c4)c3)CC2)=C(c2ccc(Cl)cc2)C1 [venetoclax],anti-cancer activity in the 22Rv1 xenograft model (tumor growth),[1],not active
"CNC(=O)c1ccc(N2C(=S)N(c3ccc(C#N)c(C(F)(F)F)c3)C(=O)C2(C)C)cc1F [enzalutamide, 4-(3-(4-cyano-3-(trifluoromethyl)phenyl)-5,5-dimethyl-4-oxo-2-thioxoimidazolidin-1-yl)-2-fluoro-N-methylbenzamide]",anti-cancer activity in the 22Rv1 xenograft model (tumor growth),[1],not active
"CC(=O)O[C@@]12CO[C@@H]1C[C@H](O)[C@@]1(C)C(=O)[C@H](O)C3=C(C)[C@@H](OC(=O)[C@H](O)[C@@H](NC(=O)OC(C)(C)C)c4ccccc4)C[C@@](O)([C@@H](OC(=O)c4ccccc4)[C@H]21)C3(C)C [docetaxel, 1,7β,10β-trihydroxy-9-oxo-5β,20-epoxytax-11-ene-2α,4,13α-triyl 4-acetate 2-benzoate 13-{(2R,3S)-3-[(tert-butoxycarbonyl)amino]-2-hydroxy-3-phenylpropanoate}]",anti-cancer activity in the 22Rv1 xenograft model (tumor growth),[1],not active
"CN1CC[C@H](c2c(O)cc(O)c3c(=O)cc(-c4ccccc4Cl)oc23)[C@H](O)C1 [alvocidib, 2-(2-chlorophenyl)-5,7-dihydroxy-8-[(3S,4R)-3-hydroxy-1-methylpiperidin-4-yl]chromen-4-one]",IC50,PC3 cells,102 nM
same,PSA expression at protein level,PSA in VCaP cells,inhibited PSA expression
same,"cell death, as indicated by caspase 3 cleavage",[2],induced cell death
same,RNA Pol II phosphorylation staining (flow cytometry),[3],dose-dependent reduction
same,IC50,22Rv1 cells,169 nM
same,retention of alvocidib in plasma and tumor,[4],retained in plasma and tumor tissues
same,accumulation of alvocidib in plasma,"[5]; Cohort 1, 1 mg QD oral Formulation No. 401-01, Subject 104, after 24 hours on day 14",some accumulation
same,change in average Cmax and AUC of alvocidib from day 1 to day 14,"[5]; Cohort 2, 1 mg BID oral Formulation No. 401-01",marked increase
same,Tmax,"[5]; Cycle 1 Day 1, Mean of subjects 501-503",60 min
same,Tmax,"[5]; Cycle 1 Day 1, Subject 501",30 min
same,Tmax,"[5]; Cycle 1 Day 1, Subject 502",120 min
same,Tmax,"[5]; Cycle 1 Day 1, Subject 503",30 min
same,Tmax,"[5]; Cycle 1 Day 14, Mean of subjects 501-503",60 min
same,Tmax,"[5]; Cycle 1 Day 14, Subject 501",30 min
same,Tmax,"[5]; Cycle 1 Day 14, Subject 502",120 min
same,Tmax,"[5]; Cycle 1 Day 14, Subject 503",30 min
same,IC50,LNCaP cells,31.8 nM
same,IC50,VCAP cells,34.5 nM
same,serum-stimulated induction of TMPRSS2 expression,[6],inhibited serum-stimulated induction of TMPRSS2
same,PSA expression at protein level,PSA in LNCaP cells,inhibited PSA expression
same,phospho- and total-AR protein levels,[7],lowers phospho- and total-AR levels
same,serum stimulated induction of PSA expression,[8],inhibited serum stimulated induction of PSA
